# Experimental data reported in US10144746B2 (GLOBAL BLOOD THERAPEUTICS, INC., priority 2015, dated 2018).
# Target: Human plasma kallikrein (Homo sapiens (Human), UniProt P03952)
# Test: In vitro plasma kallikrein inhibition assay (chromogenic substrate D-Pro-Phe-Arg-pNa, absorbance at 405 nm, IC50 determination)
# Assay type: biochemical
# Details: read-out: KLKB1 pIC50 (converted)
# Protocol: In Vitro Plasma Kallikrein Inhibition Assay
# The chromogenic substrate D-Pro-Phe-Arg-pNa, 2HCl (BIOPHEN CS-31(02) from Hyphen BioMed, Neuville-Sur-oise, France) was dissolved in 5 mL deionized water and stored at 4° C. […] All other chemicals were of analytical grade.
# A stock solution of 7 μM in 50% glycerol was stored at −20° C.
# Enzyme reactions were conducted in “assay buffer” comprised of 20 mM HEPES at pH 7.4, 150 mM NaCl, 0.1% PEG-8000 and 0.01% Triton X-100.
# Both enzyme and substrate were diluted in assay buffer.
# Plate measurements were conducted using a SPECTROStar Nano reader (BMG Labtech, San Francisco, Calif., USA). […] We used discrete wavelength, precise, kinetic reads of 15 cycles with a 60 sec cycle time.
# Determination of IC50 values
# The test compound was dissolved in 100% DMSO. The compounds were serially diluted in DMSO in a 7 point dose response. For the assays, 66.5 μL of protease solution (protease in assay buffer) was added per well followed by the addition of 8.5 μL of compound in 100% DMSO. […] After 30 min. incubation at room temperature on an orbital shaker, the reactions were started by the addition of 10 μL substrate solution (in assay buffer, final assay concentration was 600 uM). After the addition of the substrate solution the final DMSO concentration was 10%. The plate was placed again on the shaker for 5 sec, spun at 2000 rpm for 5 sec and read on the spectrophotometer. […] The IC50 value was calculated from the plot of rate vs. inhibitor concentration by a 4 parameter logistic equation: y=A+((B−A)/([…]))
# where y is the rate at the inhibitor concentration, x. A is the minimum y value at the highest inhibitor concentration and B is the y value in the absence of inhibitor, C is the IC50 value and D is the slope factor. The curve fitting was conducted with the non-linear regression routine of the analysis software XLfit (IDBS, version 5.3.1).
# Human plasma kallikrein, sequence (P03952 391-638): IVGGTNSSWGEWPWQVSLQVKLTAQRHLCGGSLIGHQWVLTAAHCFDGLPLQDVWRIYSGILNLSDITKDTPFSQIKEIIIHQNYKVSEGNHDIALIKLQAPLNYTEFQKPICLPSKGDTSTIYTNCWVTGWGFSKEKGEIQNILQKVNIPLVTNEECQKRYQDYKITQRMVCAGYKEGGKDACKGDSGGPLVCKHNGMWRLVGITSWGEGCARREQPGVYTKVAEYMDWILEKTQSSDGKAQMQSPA
# Human plasma kallikrein, sequence (P03952 20-390 partner): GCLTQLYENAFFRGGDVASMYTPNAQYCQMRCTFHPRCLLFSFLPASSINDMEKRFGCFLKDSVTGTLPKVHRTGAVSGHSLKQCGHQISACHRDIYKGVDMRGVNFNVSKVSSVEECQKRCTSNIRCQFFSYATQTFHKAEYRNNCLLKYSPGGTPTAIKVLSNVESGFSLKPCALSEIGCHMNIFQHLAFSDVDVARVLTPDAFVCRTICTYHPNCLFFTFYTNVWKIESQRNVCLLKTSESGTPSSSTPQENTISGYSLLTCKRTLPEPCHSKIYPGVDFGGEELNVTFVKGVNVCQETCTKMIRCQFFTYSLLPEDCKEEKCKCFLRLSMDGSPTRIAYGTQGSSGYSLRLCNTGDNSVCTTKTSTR
row,SMILES,IC50
1,"CCOc1cc(N)nc(C)c1CNC(=O)c1ccc2c(c1)C1OC2c2ccc(-c3c(C)cc(F)cc3F)cc21 (racemic) [Example 151, (±)-N-[(6-amino-4-ethoxy-2-methylpyridin-3-yl)-methyl]-12-(2,4-difluoro-6-methylphenyl)-15-oxatetracyclo[6.6.1.0^2,^7.0^9,1^4] pentadeca-2,4,6,9,11,13-hexaene-4-carboxamide]",195 nM
2,"COc1ccc(Oc2ccc3c(c2)C2OC3c3ccc(C(=O)NCc4c(C)cc(N)nc4C)cc32)cn1 (racemic) [Example 152, (±)-N-[(6-amino-2,4-dimethylpyridin-3-yl)-methyl]-12-[(6-methoxypyridin-3-yl)oxy]-15-(oxatetracyclo[6.6.1.0^2,^7.0^9,1^4]pentadeca-2,4,6,9,11,13-hexaene-4-carboxamide]",1260 nM
3,"Cc1cnn(Cc2ccc3c(c2)C2OC3c3ccc(C(=O)NCc4c(F)cc5c(c4C)CNC5)cc32)c1 (racemic) [Example 153, (±)-N-[(6-fluoro-4-methyl-2,3-dihydro-1H-isoindol-5-yl)methyl]-12-[(4-methyl-1H-pyrazol-1-yl)methyl]-15-oxatetracyclo[6.6.1.0^2,^7.0^9,1^4]-pentadeca-2,4,6,9,11,13-hexaene-4-carboxamide]",204 nM
4,"Nc1nccc2ccc(CNC(=O)c3ccc4c(c3)C3OC4c4ccc(-c5ccc(F)cc5F)cc43)cc12 (racemic) [Example 154, (±)-N-[(1-aminoisoquinolin-7-yl)methyl]-12-(2,4-difluorophenyl)-15-oxatetracyclo [6.6.1.0^2,^7.0^9,1^4]-pentadeca-2,4,6,9,11,13-hexaene-4-carboxamide]",3720 nM
5,"Nc1ncc(CNC(=O)c2ccc3c(c2)C2OC3c3ccc(-c4ccc(F)cc4F)cc32)c2ccccc12 (racemic) [Example 155, (±)-N-[(1-aminoisoquinolin-4-yl)methyl]-12-(2,4-difluorophenyl)-15-oxatetracyclo [6.6.1.0^2,^7.0^9,1^4]-pentadeca-2,4,6,9,11,13-hexaene-4-carboxamide]",4070 nM
6,"Cc1ccc(C#N)c(-c2ccc3c(c2)C2OC3c3ccc(C(=O)NCc4c(C)cc(N)nc4C)cc32)c1 (racemic) [Example 156, (±)-N-[(6-amino-2,4-dimethylpyridin-3-yl)-methyl]-12-(2-cyano-5-methylphenyl)-15-oxatetracyclo[6.6.1.0^2,^7.0^9,1^4] pentadeca-2,4,6,9,11,13-hexaene-4-carboxamide]",93.3 nM
7,"Cc1ccc(-c2ccc3c(c2)C2OC3c3ccc(C(=O)NCc4c(C)cc(N)nc4C)cc32)c(C#N)n1 (racemic) [Example 157, (±)-N-[(6-amino-2,4-dimethylpyridin-3-yl)-methyl]-12-(2-cyano-6-methylpyridin-3-yl)-15-oxatetracyclo [6.6.1.0^2,^7.0^9,1^4] pentadeca-2,4,6,9,11,13-hexaene-4-carboxamide]",22.9 nM
8,"Cc1cc(N)nc(C)c1CNC(=O)c1ccc2c(c1)C1OC2c2ccc(-c3cccc(C(F)(F)F)c3C#N)cc21 (racemic) [Example 158, (±)-N-[(6-amino-2,4-dimethylpyridin-3-yl)-methyl]-12-[2-cyano-3-(trifluoromethyl)phenyl]-15-oxatetracyclo[6.6.1.0^2,^7.0^9,1^4] pentadeca-2,4,6,9,11,13-hexaene-4-carboxamide]",112 nM
9,"Cc1cccc(Oc2ccc3c(c2)C2OC3c3ccc(C(=O)NCc4c(C)cc(N)nc4C)cc32)c1 (racemic) [Example 159, (±)-N-[(6-amino-2,4-dimethylpyridin-3-yl)-methyl]-12-(3-methylphenoxy)-15-oxatetracyclo[6.6.1.0^2,^7.0^9,1^4] pentadeca-2,4,6,9,11,13-hexaene-4-carboxamide]",1860 nM
10,"Cc1c(CNC(=O)c2ccc3c(c2)C2OC3c3ccc(Cn4cccn4)cc32)c(F)cc2c1CNC2 (racemic) [Example 160, (±)-N-[(6-fluoro-4-methyl-2,3-dihydro-1H-isoindol-5-yl)methyl]-12-[(1H-pyrazol-1-yl)methyl]-15-oxatetracyclo [6.6.1.0^2,^7.0^9,1^4]-pentadeca-2,4,6,9,11,13-hexaene-4-carboxamide]",120 nM
